Assay results reported in PubChem BioAssay (NCI).
Values joined by “and” are separate entries in the source; they are usually repeats but may differ in a detail not shown here. Equal entries are not always repeated.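 1) Cells in 96-well plates. 2) Compound, 48 h, 5 concentrations. 3) Linear interpolation between surrounding doses. 4) Unreached endpoint = highest concentration. GI50 marks 50% less growth. TGI: concentration producing complete growth inhibition.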 Where a SMILES comes first, the peptide text is derived from it. [ ]: non-standard residue; d: D form. The star is where a group is joined. X28 = COC1=CC(=O)N(C(=O)[C@@H](O*)C(C)C)[C@H]1Cc1ccccc1; NMeL = CN[C@@H](CC(C)C)C(=O)O; Hexanoyl = CCCCCC(=O)*

Key:
Assay in all cases: inhibition of tumour cell growth, NCI panel, 48 h
[1] = test system: CAKI-1 renal
[2] = test system: UACC-257 melanoma
[3] = test system: EKVX NSCLC
[4] = test system: SF-268 CNS
[5] = test system: U251 CNS
[6] = test system: SK-MEL-5 melanoma
[7] = test system: UACC-62 melanoma
[8] = test system: MALME-3M melanoma
[9] = test system: HL-60(TB) leukemia

`CCC1OC2C(CC=C(C)C)=C3OC(C)(O)C(C)(CC)C(O)C3=C3OC(=O)C=C1C32` (stereo not drawn) was tested, and the TGI [1] was > 100 µM, the TGI [2] was > 100 µM and the TGI [3] was > 100 µM. For the same compound, the TGI [4] was > 100 µM, the TGI [5] was > 100 µM and the TGI [6] was > 100 µM. For the same compound, the TGI [7] was > 100 µM.
`CCOC(=O)c1ccc(N=C/C=C(\Nc2ccc(C(=O)OCC)cc2)c2ccc3ccccc3c2)cc1` gave a TGI [1] of 83.8 µM, a TGI [2] of 92.3 µM and a TGI [8] of 43.6 µM. For the same compound, the TGI [4] was > 100 µM, the TGI [5] was > 100 µM and the TGI [6] was 34.7 µM. The TGI [9] was 70.8 µM and the TGI [7] was 30.5 µM.
`CCOC(=O)c1c(NC(=S)NCc2ccccc2)sc2c1CCN(C)C2` was tested, and the TGI [1] was > 100 µM, the TGI [2] was > 100 µM and the TGI [3] was > 100 µM. For the same compound, the TGI [4] was > 100 µM, the TGI [6] was > 100 µM and the TGI [9] was 36.2 µM. The TGI [7] was > 100 µM.
For `Cc1cc2nc3c(C#N)c(-c4ccccc4)/c(=C\Nc4cccc(C(F)(F)F)c4)c(=O)n3c2cc1C`, the TGI [1] was > 100 µM, the TGI [2] was > 100 µM and the TGI [8] was > 100 µM. The TGI [3] was > 100 µM, the TGI [4] was > 100 µM and the TGI [5] was > 100 µM. The TGI [6] was > 100 µM.
In the case of `COC(=O)CCCc1ccc2c(c1)CCC2`, the TGI [1] is reported as > 100 µM, the TGI [2] is reported as > 100 µM and the TGI [8] is reported as > 100 µM. For the same compound, the TGI [4] was > 100 µM, the TGI [5] was > 100 µM and the TGI [6] was > 100 µM. For the same compound, the TGI [9] was > 100 µM and the TGI [7] was > 100 µM.
In the case of `CN1CCN(c2ccc3nc(-c4ccc(OCCCN5C(=O)c6cccc7cccc(c67)C5=O)cc4)[nH]c3c2)CC1`, the GI50 [1] is reported as 18.8 µM, the TGI [1] is reported as > 100 µM and the GI50 [2] is reported as 24.8 µM. The TGI [2] was 51.8 µM, the GI50 [8] was 4.43 µM and the TGI [8] was > 30.8 µM. For the same compound, the GI50 [4] was 26.3 µM, the TGI [4] was 99.8 µM and the GI50 [9] was 3.13 µM. It also gave a TGI [9] of 7.41 µM, a GI50 [7] of 5.18 µM and a TGI [7] of 10.1 µM.
For `COC(=O)C1Cc2c([nH]c3ccccc23)-c2[nH]c3ccccc3c2CC(NC(C)=O)C(=O)NCC(=O)N1` (stereo not drawn), the TGI [1] was > 100 µM, the TGI [2] was > 100 µM and the TGI [3] was > 100 µM. The TGI [4] was > 100 µM, the TGI [5] was > 100 µM and the TGI [6] was > 100 µM. The TGI [7] was > 100 µM.
`CCCCCC(=O)N[C@H](C(=O)N[C@H](C(=O)N(C)[C@@H](CC(C)C)C(=O)N1CCC[C@H]1C(=O)N1CCC[C@H]1C(=O)O[C@H](C(=O)N1C(=O)C=C(OC)[C@@H]1Cc1ccccc1)C(C)C)C(C)C)C(C)C` (Hexanoyl-VV[NMeL]PP-X28) was tested, and the TGI [1] was > 100 µM, the TGI [2] was > 100 µM and the TGI [8] was > 100 µM. The TGI [3] was > 100 µM, the TGI [4] was > 100 µM and the TGI [5] was > 100 µM. For the same compound, the TGI [9] was 6.2 µM and the TGI [7] was > 100 µM.
Compound `COc1cc(-c2ccc(-c3ccc(C(=N)N)s3)s2)cc(OC)c1OC` has a GI50 [1] of 1.7 µM, a TGI [1] of 3.28 µM and a GI50 [2] of 2.22 µM. For the same compound, the TGI [2] was 4.02 µM, the GI50 [8] was 1.74 µM and the TGI [8] was 3.53 µM. It also gave a GI50 [3] of 1.92 µM, a TGI [3] of 4.85 µM and a GI50 [4] of 1.74 µM. The TGI [4] was 3.49 µM, the GI50 [6] was 1.52 µM and the TGI [6] was 2.88 µM. It also gave a GI50 [9] of 2.7 µM, a TGI [9] of 5.64 µM and a GI50 [7] of 1.7 µM. It also gave a TGI [7] of 3.17 µM.
`Cc1ccc(Nc2ncnc3sc(SCc4ccccc4)nc23)cc1` was tested, and the TGI [1] was > 100 µM, the TGI [2] was > 100 µM and the TGI [8] was > 100 µM. The TGI [3] was > 100 µM, the TGI [4] was > 100 µM and the TGI [5] was > 100 µM. The TGI [6] was > 100 µM and the TGI [9] was > 100 µM.
In the case of `CC(=O)c1nc2ccccc2n1CC(=O)c1ccc([N+](=O)[O-])cc1`, the TGI [1] is reported as 53.7 µM, the TGI [2] is reported as > 100 µM and the TGI [8] is reported as 33.2 µM. The TGI [3] was > 100 µM, the TGI [4] was > 100 µM and the TGI [5] was 19.9 µM. The TGI [9] was > 100 µM and the TGI [7] was 60.9 µM.
In the case of `N#CC(C(=O)c1ccccc1F)c1nc2cc(C(F)(F)F)ccc2s1` (stereo not drawn), the TGI [1] is reported as > 100 µM, the TGI [2] is reported as > 100 µM and the TGI [8] is reported as 69.3 µM. For the same compound, the TGI [3] was 81.6 µM, the TGI [4] was > 100 µM and the TGI [5] was > 100 µM. It also gave a TGI [6] of 52.3 µM.
`CC1(C)COC(c2cccc(C3=NC(C)(C)CO3)c2)=N1` was tested, and the TGI [1] was > 100 µM, the TGI [2] was > 100 µM and the TGI [8] was > 100 µM. For the same compound, the TGI [3] was > 100 µM, the TGI [4] was > 100 µM and the TGI [5] was > 100 µM. For the same compound, the TGI [6] was > 100 µM and the TGI [7] was > 100 µM.
For `COc1cc2c(cc1-c1c(C)noc1C)ncc1nc(C3CCCCC3)n(C3CCC(OC(F)F)CC3)c12` (stereo not drawn), the GI50 [1] was 1.03 µM, the TGI [1] was > 100 µM and the GI50 [3] was 2.31 µM. The TGI [3] was > 100 µM, the GI50 [4] was 5.05 µM and the TGI [4] was > 100 µM. The GI50 [9] was 1.26 µM and the TGI [9] was 3.97 µM.
For `O=[N+]([O-])c1ccccc1S(=O)(=O)N1CCCc2cc(Cl)ccc21`, the TGI [1] was > 100 µM, the TGI [2] was > 96.1 µM and the TGI [8] was > 100 µM. The TGI [3] was > 100 µM, the TGI [4] was > 100 µM and the TGI [6] was > 100 µM. For the same compound, the TGI [9] was 72.2 µM and the TGI [7] was > 100 µM.
With `COc1ccc(NS(=O)C2CCCCC2)cc1` (stereo not drawn) the TGI [1] was > 100 µM, the TGI [2] was > 100 µM and the TGI [8] was > 100 µM. For the same compound, the TGI [3] was > 100 µM, the TGI [4] was > 100 µM and the TGI [5] was > 100 µM. The TGI [6] was > 100 µM and the TGI [9] was > 100 µM.
For `CC(=O)OCc1ccc(-c2nc(C#N)c(N)o2)o1`, the TGI [1] was > 10 µM, the TGI [2] was > 10 µM and the TGI [8] was > 10 µM. For the same compound, the TGI [3] was > 10 µM, the TGI [4] was > 10 µM and the TGI [6] was > 10 µM. For the same compound, the TGI [9] was > 10 µM and the TGI [7] was > 10 µM.
Work on `CC(C)(C)CC(C)(C)Cc1ccc(OCCOCC[N+](C)(C)Cc2ccccc2)cc1` yielded a GI50 [1] of 3.47 µM, a TGI [1] of 13.8 µM and a GI50 [2] of 1.51 µM. The TGI [2] was 3.18 µM, the GI50 [4] was 1.59 µM and the TGI [4] was 3.19 µM. It also gave a GI50 [5] of 1.56 µM, a TGI [5] of 3.08 µM and a GI50 [6] of 0.517 µM. It also gave a TGI [6] of 1.79 µM, a GI50 [9] of 0.365 µM and a TGI [9] of 1.93 µM. It also gave a GI50 [7] of 1.26 µM and a TGI [7] of 2.54 µM.
In the case of `CC1CCN(c2nnc(Cl)cc2C(=O)c2ccccc2)CC1`, the TGI [1] is reported as 34 µM, the TGI [2] is reported as 63.2 µM and the TGI [3] is reported as > 100 µM. For the same compound, the TGI [4] was 3.04 µM, the TGI [5] was > 100 µM and the TGI [6] was 31.1 µM. The TGI [9] was > 100 µM and the TGI [7] was > 100 µM.
In the case of `Cn1c2ccccc2n2c(=O)c(-c3ccc(O)cc3)nnc12`, the TGI [1] is reported as > 100 µM, the TGI [2] is reported as > 100 µM and the TGI [8] is reported as > 100 µM. The TGI [3] was > 100 µM, the TGI [4] was > 100 µM and the TGI [5] was 85.8 µM. The TGI [6] was > 100 µM and the TGI [9] was > 100 µM.
With `CC(=O)OCC1OC(n2c(-c3ccccc3)c(N=Nc3ccc(Cl)cc3)c(C)c(C#N)c2=S)C(OC(C)=O)C(OC(C)=O)C1OC(C)=O` (stereo not drawn) the TGI [1] was 63.9 µM and > 100 µM, the GI50 [2] was 16.5 µM and > 100 µM and the TGI [2] was > 100 µM. For the same compound, the GI50 [8] was 20.1 µM and > 100 µM, the TGI [8] was > 100 µM and the GI50 [4] was 14.7 µM and 39.3 µM. For the same compound, the TGI [4] was > 100 µM, the GI50 [5] was 3.79 µM and 24 µM and the TGI [5] was 15.6 µM and 74.4 µM. For the same compound, the GI50 [6] was 4.01 µM and 10.4 µM, the TGI [6] was 14.4 µM and 54.8 µM and the GI50 [9] was 23 µM and 8.03 µM. The TGI [9] was > 100 µM, the GI50 [7] was 3.2 µM and 14.4 µM and the TGI [7] was 15 µM and > 100 µM.
